From paper PMC8765435, “In Vitro Antimalarial Activity of Inhibitors of the Human GTPase Rac1” (Antimicrobial Agents and Chemotherapy, 2022)
Like-named read-outs stand apart in the source and are kept apart here.

Columns and labels:
3D7 mature gametocytes = assay: Gametocyte viability luminescence assay, mature gametocytes; format: cell-based, Plasmodium falciparum
Protocol: (§1) Chloroquine (CQ)-sensitive (D10, wild-type 3D7, or transgenic 3D7elo1-pfs16-CBG99) and CQ-resistant (W2) strains of P. falciparum were cultured as described previously ([58]), with slight modifications, as detailed in the supplemental material.
(§2) Asexual parasite growth was determined spectrophotometrically (optical density at 650 nm [OD650]) by measuring the activity of parasite lactate dehydrogenase (pLDH), according to a modified version of the method of Makler et al. ([59]). Gametocyte viability was measured by a luminescence method described previously ([60]). Details for the two methods are reported in the supplemental material. From either the OD or ALU (arbitrary luminescence units), the percentages of viability were calculated according to the formula 100 × (treated sample signal − blank signal)/(untreated control signal − blank signal). The blank for the pLDH assay was uninfected RBCs at the same hematocrit as that of parasitized RBCs, and the blank for the luminescence assay was parasites treated with a high dose of methylene blue. […]
(§3) strain (wild type or transgenic 3D7elo1-pfs16-CBG99 strain) was cultured in similar conditions, except for 10% naturally clotted Human O+ serum instead of AlbuMaxII and human type O-positive instead of A-positive RBCs. […]
(§4) in a standard gas mixture consisting of 1% O2, 5% CO2, 94% N2. Immature (stage II-III) and mature (stage V) gametocytes were obtained as described1. Briefly, cultures were diluted to 0.5% parasitemia at 5% HCT, and the medium was changed daily until parasites were stressed by nutrient deprivation. N-acetylglucosamine (NAG) (Sigma-Aldrich) 50 mM was then added to clear residual asexual parasites: Stage II and III gametocytes were obtained 4 days after NAG addition to the culture, while stage IV and V gametocytes were used 11 to 13 days from NAG addition. Gametocyte stages were routinely checked on Giemsa-stained smears. […]
(§5) Drug treated gametocyte cultures were transferred to 96-well black microplates and D-luciferin (1 mM in citrate buffer 0.1 M, pH 5.5) was added at a 1:1 volume ratio. Luminescence measurements were performed after 10 min with 500 ms integration time. Gametocytes treated

[1] = tested on: P. falciparum asexual parasites, chloroquine-resistant W2 strain; assay: Drug susceptibility assay (pLDH), asexual parasites, W2 strain; format: cell-based, Plasmodium falciparum
Protocol: as §1, §2
(§6) The CQ-sensitive (D10) and the CQ-resistant (W2) strains were maintained at 5% hematocrit […]
(§7) supplemented with 1% AlbuMaxII (lipid-rich bovine serum albumin) (Invitrogen), 0.01% hypoxantine (Sigma), 20mM Hepes (EuroClone), 2 mM glutamine (EuroClone). […]
(§8) In vitro P. falciparum drug susceptibility assay […]
(§9) plate were transferred to a plate containing 100µl of Malstat reagent (0.11% [vol/vol] Triton- […]
(§10) dinucleotide [APAD] [Sigma-Aldrich], adjusted to pH 9 with 1 M HCl) and 25 µl of PES/NBT […]
(§11) pLDHassay. The plate was read at a wavelength of 650 nm using a microplate reader, Synergy4 […]
(§12) Uninfected RBC at the same HCT than parasites were used as blank. […]

[2] = tested on: P. falciparum asexual parasites, chloroquine-sensitive D10 strain; assay: Drug susceptibility assay (pLDH), asexual parasites, D10 strain; format: cell-based, Plasmodium falciparum; settings: for antimalarial activity (in words): asexual and sexual P. falciparum parasites
Protocol: as §1, §2, §6, §7, §8, §9, §10, §11, §12

Rac1 [3] = target: T1, Rac1 (Homo sapiens, UniProt P63000); design: endogenous in cells; settings: Rac1 activity in human smooth muscle cells; cited from earlier work
[4] = tested on: F3II mammary carcinoma cells; design: method as in PMID 24066799; settings: F3II mammary carcinoma cell proliferation; cited from earlier work
3D7 immature gametocytes = assay: Gametocyte viability luminescence assay, immature gametocytes; format: cell-based, Plasmodium falciparum; settings: 72 h, read-out: Mean IC50 ± SD, 3D7 immature gametocytes
Protocol: as §1, §2, §3, §4, §5

[5] = tested on: P. falciparum asexual parasites, chloroquine-resistant W2 strain; design: method as in PMID 33328606; settings: reported previously, read-out: Mean IC50 ± SD, W2; cited from earlier work
[6] = tested on: P. falciparum asexual parasites, chloroquine-sensitive D10 strain; design: method as in PMID 33328606; settings: reported previously, read-out: Mean IC50 ± SD, D10; cited from earlier work
[7] = tested on: HMEC-1 human microvascular endothelial cells; assay: Cell cytotoxicity MTT assay; format: cell-based; settings: for IC50: read-out: Mean HMEC-1 IC50 ± SD; for SI (selectivity index): ratio IC50 against HMEC-1 cells / IC50 against D10 asexual parasites
Protocol: Cytotoxicity was evaluated on human microvascular endothelial cells (HMEC-1) as detailed in the supplemental material. […] Plates were then read on a microplate reader (Synergy 4; BioTek) at a wavelength of 550 nm (reference, 650 nm). […] All tests were performed in duplicate at least three times.
The selectivity index (SI) is the ratio between the cytotoxic IC50 value against HMEC-1 cells and the parasitic IC50 value against the D10 strain and indicates the compound selectivity for the parasite.
Cytotoxicity was evaluated on Human Microvascular Endothelial Cells (HMEC-1) maintained
and 2 mM L-glutamine. Cells were seeded in 96 well flat bottom tissue culture clusters (1.5x104
cells/well), let adhere overnight and treated with serial dilutions of test compounds . […]

[8] = tested on: REF-52 rat embryo fibroblasts; design: method as in PMID 19549603; settings: Actin stress fiber formation in REF-52 rat embryo fibroblasts; cited from earlier work
Rac1 [9] = target: T1, Rac1; design: endogenous in cells; method as in PMID 24040362; settings: Rac1 activity in 22Rv1 human prostate cancer cells; cited from earlier work
Rac1 [10] = tested on: Rac1; design: method as in PMID 17932039; settings: Rac1 activity in U87MG glioma cells; cited from earlier work
Rac1 [11] = tested on: Rac1; design: method as in PMID 15128949; settings: Rac1 activity in PDGF-stimulated NIH 3T3 fibroblasts; cited from earlier work
Rac1 [12] = tested on: Rac1; design: method as in PMID 21433368; settings: Rac1 activity in EGF-stimulated NIH 3T3 fibroblasts; cited from earlier work
Rac1 [13] = tested on: Rac1; design: method as in PMID 20008126; settings: Rac1 activity in Swiss 3T3 embryonic mouse fibroblasts; cited from earlier work
[14] = asexual parasites, CQ-resistant W2 strain, 72 h, pLDH, read-out: Mean IC50 ± SD, W2
[15] = asexual parasites, CQ-sensitive D10 strain, 72 h, pLDH, read-out: Mean IC50 ± SD, D10
[16] = stage V gametocytes, 72 h, luminescence, read-out: Mean IC50 ± SD, 3D7 mature gametocytes
[17] = Plasmodium falciparum, 3D7, stage V gametocytes, 72 h, luminescence, read-out: Mean IC50 ± SD, 3D7 mature gametocytes
[18] = Plasmodium falciparum, W2, 72 h, asexual parasites, CQ-resistant W2 strain, 72 h, pLDH, read-out: Mean IC50 ± SD, W2
[19] = Plasmodium falciparum, 3D7, stage II-III gametocytes
[20] = Homo sapiens, HMEC-1, MTT, 72 h

With `Cc1cc(C)nc(NS(=O)(=O)c2ccc(NC(=S)NC(=O)COc3ccc(Br)cc3Cl)cc2)n1` [ZCL278] the IC50 (3D7 mature gametocytes; Table S2, CDC42 inhibitors, read-out: IC50, 3D7 mature gametocytes) was 63.5 ± 27.3 µM, the IC50 [1, 14] was over 50 µM and the “antimalarial activity (in words)” value [2] was “not active”. It also gave an IC50 [2, 15] of over 50 µM.
In the case of `Cc1ccc(NC(=O)c2cccc(OCc3c(C)noc3C)c2)cc1S(N)(=O)=O` [Rac1 inhibitor II], the IC50 [1, 14] is listed as 37.5 ± 8.67 µM, the IC50 (Rac1 [3]) is listed as 12.2 µM and the IC50 [2, 15] is listed as 11.9 ± 7.37 µM.
For `Cc1cc(C)nc(N=C(N)Nc2ccccc2C(F)(F)F)n1` [ZINC69391], the IC50 [4] is given as 61 µM, the IC50 [1, 14] is given as 12.6 ± 5.25 µM and the IC50 [2, 15] is given as 17.5 ± 4.64 µM.
In the case of `CCN(CC)CCCC(C)Nc1ccnc2cc(Cl)ccc12` (stereo not drawn) [Chloroquine], the IC50 ([1]; Plasmodium falciparum, W2, 72 h, read-out: Mean IC50 ± SD, W2) is reported as 0.42 ± 0.08 µM and the IC50 ([2]; Plasmodium falciparum, D10, 72 h, read-out: Mean IC50 ± SD, D10) is reported as 0.02 ± 0.003 µM.
For `Cc1cc(C)cc(NC(N)=Nc2ccccc2C(F)(F)F)c1` [Compound 1A116], the IC50 [4] is given as 4 µM, the IC50 (3D7 mature gametocytes; [16]) is given as 56.6 ± 21.3 µM and the IC50 (3D7 immature gametocytes; stage II-III gametocytes) is given as 78.1 ± 17.7 µM. For the same compound, the IC50 [5] was 6.89 ± 1.41 µM, the IC50 [6] was 3.21 ± 1.17 µM and the IC50 ([7]; MTT, 72 h) was 132 ± 37.3 µM.
For `Cc1cc(/C=c2/sc3nc4ccccc4n3c2=O)c(C)n1-c1ccccc1` [ITX3], the IC50 [8] is given as 50 to 100 µM, the IC50 [1, 14] is given as over 50 µM and the “antimalarial activity (in words)” value [2] is given as “no effect”. For the same compound, the IC50 [2, 15] was over 50 µM.
For `CC1CCCN(S(=O)(=O)c2cccc(NC(=O)c3cc(-c4ccccc4O)n[nH]3)c2)C1` (stereo not drawn) [Compound 3′], the IC50 (3D7 mature gametocytes; [17]) was 26.6 ± 3.7 µM, the IC50 [1, 18] was 1.24 ± 0.13 µM and the IC50 (3D7 immature gametocytes; [19]) was 2.13 ± 0.43 µM. For the same compound, the IC50 [7, 20] was 16 ± 0.44 µM, the “SI (selectivity index)” value [7] was 5.8 and the IC50 ([2]; Plasmodium falciparum, D10, 72 h, asexual parasites, CQ-sensitive D10 strain, 72 h, pLDH, read-out: Mean IC50 ± SD, D10) was 2.76 ± 0.12 µM.
For `Cc1cc2cc(Nc3ccnc(Nc4ccc5[nH]c(C)cc5c4)n3)ccc2[nH]1` [Aza-1], the IC50 (Rac1 [9]) is listed as 5 to 20 µM, the IC50 (3D7 mature gametocytes; [17]) is listed as 7.23 ± 2.12 µM and the IC50 [1, 18] is listed as under 1 µM. For the same compound, the IC50 [1, 14] was 0.76 ± 0.27 µM, the IC50 (3D7 immature gametocytes; [19]) was 1.25 ± 0.48 µM and the IC50 [7, 20] was 12.3 ± 6.11 µM. The “SI (selectivity index)” value [7] was 48.9.
In the case of `O=c1cc(CN2CCOCC2)occ1OCCCCCSc1ccnc2cc(C(F)(F)F)ccc12` [EHT1864], the IC50 (Rac1 [10]) is given as 10 to 50 µM, the IC50 (3D7 mature gametocytes; [16]) is given as 32.6 ± 0.92 µM and the IC50 (3D7 immature gametocytes; stage II-III gametocytes) is given as over 50 µM. The IC50 [5] was 7.75 ± 1.82 µM, the IC50 [6] was 3.88 ± 0.74 µM and the IC50 ([7]; MTT, 72 h) was 48.5 ± 1.23 µM.
`CCN(CC)CCCC(C)Nc1nc(C)cc(Nc2ccc3nc(C)cc(N)c3c2)n1` (stereo not drawn) [NSC23766] gave an IC50 (3D7 mature gametocytes; [16]) of 30.8 ± 3.09 µM, an IC50 [1, 14] of 4.05 ± 0.5 µM and an IC50 (3D7 immature gametocytes; stage II-III gametocytes) of 15.3 ± 3.7 µM. The IC50 ([7]; MTT, 72 h) was 154 ± 38.5 µM, the IC50 [2, 15] was 5.02 ± 1.47 µM and the IC50 (Rac1 [11]) was […].
In the case of `COc1ccc(C2CC(c3ccccc3)=NN2c2ccc(S(N)(=O)=O)cc2)cc1` (stereo not drawn) [ML141], the IC50 (Rac1 [12]) is given as about 10 µM, the IC50 [1, 14] is given as 17.3 ± 1.84 µM and the IC50 [2, 15] is given as 10.7 ± 0.29 µM.
`CC1CCCN(S(=O)(=O)c2ccc(NC(=O)c3cc(-c4ccccc4O)n[nH]3)cc2)C1` (stereo not drawn) [Compound 3] gave an IC50 (3D7 mature gametocytes; [17]) of 21.9 ± 2.71 µM, a melting point of 254 to 258 °C and an IC50 ([1]; Plasmodium falciparum, W2, 72 h, read-out: Mean IC50 ± SD, W2, asexual parasites, CQ-resistant W2 strain, 72 h, pLDH) of under 1 µM. It also gave an IC50 ([1]; read-out: Mean IC50 ± SD, W2, asexual parasites, CQ-resistant W2 strain, 72 h, pLDH) of 0.52 ± 0.02 µM, an IC50 (3D7 immature gametocytes; [19]) of 2.26 ± 0.22 µM and an IC50 ([7]; Homo sapiens, HMEC-1, 72 h) of 10.6 ± 1.19 µM. For the same compound, the IC50 ([2]; Plasmodium falciparum, D10, 72 h, read-out: Mean IC50 ± SD, D10, asexual parasites, CQ-sensitive D10 strain, 72 h, pLDH) was under 1 µM and the IC50 ([2]; read-out: Mean IC50 ± SD, D10, asexual parasites, CQ-sensitive D10 strain, 72 h, pLDH) was 0.66 ± 0.05 µM.
With `CN(C)c1ccc2nc3ccc(=[N+](C)C)cc-3sc2c1` [Methylene blue] the IC50 (3D7 mature gametocytes; [17]) was 0.12 ± 0.03 µM and the IC50 (3D7 immature gametocytes; [19]) was 0.03 ± 0.01 µM.
For `O=C(C#Cc1ccccc1)c1cccc([N+](=O)[O-])c1` [MLS000532223], the IC50 [1, 14] is listed as 9.51 ± 1.66 µM, the IC50 (Rac1 [13]) is listed as about 10 µM and the IC50 [2, 15] is listed as 6.89 ± 0.73 µM.
